Measured values reported in patent publication US20200032249A1, “LABELING, ISOLATION, & ANALYSIS OF RNA FROM RARE CELL POPULATIONS” (priority 2017, published 2020).

What was measured:
293T cells expressing CD = experiment: immunopurification of labeled mRNAs with anti-BrdU antibody and RT-PCR, CD-expressing 293T cells; type: cell-based, human
Description: FIG. 1a-f. Labeling and purification of RNA by CD expression and 5-FC treatment. FIG. 1a—Schematic diagram showing RNA labeling using CD and 5-FC. FIG. 1b—Chemical reactions steps involved in the labeling of RNA using CD and 5-FC. The dotted arrow indicates the intermediary steps that are not shown. FIG. 1c Relative fold enrichment of mRNA isolated by Flura-tagging. 293T cells expressing CD or unlabeled controls were treated with 5-FC for the indicated times, labeled mRNAs were immunopurified using anti-BrdU antibody, and the levels of labeled mRNAs of the indicated genes relative to corresponding non-immunoprecipitated inputs normalized to immunopurified mRNAs from cells not expressing CD were quantified by RT-PCR. […] FIG. 1d—Schematic diagram of the constructs used for inducible expression of UPRT and/or CD, and the experimental design. Transduced RFP+MDA231 cells were mixed with unlabeled cells, treated with doxycycline for 24 h and then 5-FC for 4-12 h. Cells were analyzed by immunofluorescence or harvested for RNA analysis. FIG. 1e—Flura-tagging in MDA231 cells in vitro. […] The fold enrichment of the indicated representative human genes over mouse housekeeping genes (mHPRT1 and mLDH1) was measured by RT-PCR (n=3±S.E.). […]
Next, we determined whether 5-FU-labeled mRNAs can be specifically and efficiently isolated by immunoprecipitation. […]

[1] = tested on: CD/UPRT-expressing MDA231 cells; experiment: expression of representative human genes in mouse lung lysates by RT-PCR; type: in vivo; details: 250 mg/kg, 8 h, mouse lungs
Description: FIG. 5 a-e. Flura-tagging enables transcriptional profiling from micrometastatic lung xenografts. FIG. 5a—Representative H & E stained sections of mouse lungs harboring micrometastases (arrows) used in Flura-tagging experiments. […] Scale bar=2 mm (top), 100 μM (bottom). FIG. 5b—Representative micrometastasis in the context of lung vasculature. MDA231 cells were stained with anti-GFP antibody, blood vessels with anti-CD31 antibody and nuclei (DNA) with Hoechst 33258. Scale bar=50 μM. FIG. 5c—Quantification of the number of cells per micrometastasis per tissue section in engrafted lungs of mice used in the Flura-tagging experiments. The number of nuclei in individual micrometastases in lung sections from 16 separate mice were counted. […] Expression of the indicated representative genes in the lung lysates containing control MDA231 cells or MDA231 cells expressing CD/UPRT and treated with 250 mg/kg 5-FC for 8 h, was measured by RT-PCR using human specific primers (n=3). […] FIG. 5e—Flow cytometric quantification of the number of RFP+ MDA231 cells in mouse lung in the Flura-tagging experiments. […]
Mouse experiments were performed following the protocols approved by the MSKCC Institutional Animal Care and Use Committee (IACUC). […] Proliferation of injected cancer cells were quantified using bioluminescence imaging following retroorbital injection of luciferin. […]

Compound: Nc1nc(=O)[nH]cc1F [5-FC, 5-fluorocytosine]
- time for which labeling continued to increase (293T cells expressing CD): up to 24 h
- time after treatment at which labeled mRNAs were detectable (293T cells expressing CD; three representative genes): 2 h
- range of expression of representative human genes vs control MDA231 cells [1]: ≤ 2 fold
